{
  "source": "ChEMBL document CHEMBL3132769",
  "about": "“Fragment growing to retain or alter the selectivity of anchored kinase hinge-binding fragments” (Medchemcomm, 2014)",
  "key": {"[1]": {"target": "T1, Serine/threonine-protein kinase Sgk1 (Homo sapiens) (UniProt O00141)", "T1 sequence (whole entry)": "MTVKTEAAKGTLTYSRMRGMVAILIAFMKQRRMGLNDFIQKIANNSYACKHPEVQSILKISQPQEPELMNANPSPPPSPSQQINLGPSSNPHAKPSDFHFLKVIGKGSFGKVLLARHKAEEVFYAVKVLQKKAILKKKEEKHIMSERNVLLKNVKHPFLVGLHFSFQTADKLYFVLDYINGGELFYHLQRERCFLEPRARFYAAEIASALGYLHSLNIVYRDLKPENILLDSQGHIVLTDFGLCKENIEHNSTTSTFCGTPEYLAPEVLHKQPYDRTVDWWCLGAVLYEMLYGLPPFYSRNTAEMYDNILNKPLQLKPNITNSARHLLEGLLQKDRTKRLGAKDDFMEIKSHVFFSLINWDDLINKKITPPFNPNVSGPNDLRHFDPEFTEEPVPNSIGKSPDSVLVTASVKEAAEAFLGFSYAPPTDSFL", "test": "Inhibition of human truncated SGK1 expressed in baculovirus assessed as substrate phosphorylation using fluorescence-labelled peptides as substrate at 95 uM after 90 mins by microfluidic peptide phosphorylation assay"}, "[2]": {"target": "Ribosomal protein S6 kinase alpha-2 (Homo sapiens) (UniProt Q15349)", "sequence (Q15349 whole entry)": "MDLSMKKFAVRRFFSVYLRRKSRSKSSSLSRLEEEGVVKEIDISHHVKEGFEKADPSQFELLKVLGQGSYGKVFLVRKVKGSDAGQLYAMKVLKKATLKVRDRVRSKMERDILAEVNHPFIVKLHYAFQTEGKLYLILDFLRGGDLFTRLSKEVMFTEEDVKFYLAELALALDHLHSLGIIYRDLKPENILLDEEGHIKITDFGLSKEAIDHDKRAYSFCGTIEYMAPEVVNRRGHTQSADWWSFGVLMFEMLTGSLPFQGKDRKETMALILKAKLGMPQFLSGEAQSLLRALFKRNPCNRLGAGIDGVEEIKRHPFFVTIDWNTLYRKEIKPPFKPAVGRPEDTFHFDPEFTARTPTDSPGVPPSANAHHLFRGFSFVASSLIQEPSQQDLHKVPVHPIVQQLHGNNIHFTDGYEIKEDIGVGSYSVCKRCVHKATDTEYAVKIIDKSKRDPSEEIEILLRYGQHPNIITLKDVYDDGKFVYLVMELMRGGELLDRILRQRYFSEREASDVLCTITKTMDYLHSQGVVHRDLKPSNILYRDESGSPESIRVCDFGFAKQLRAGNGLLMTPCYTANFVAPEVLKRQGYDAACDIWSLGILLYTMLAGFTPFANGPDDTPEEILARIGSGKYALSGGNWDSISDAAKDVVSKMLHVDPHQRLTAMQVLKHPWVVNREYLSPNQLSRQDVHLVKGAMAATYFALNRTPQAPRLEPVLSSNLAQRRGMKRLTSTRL", "test": "Inhibition of human full length RSK3 expressed in baculovirus assessed as substrate phosphorylation using fluorescence-labelled peptides as substrate at 95 uM after 90 mins by microfluidic peptide phosphorylation assay"}, "[3]": {"target": "Proto-oncogene tyrosine-protein kinase Src (Homo sapiens) (UniProt P12931)", "sequence (P12931 2-536 limits assumed)": "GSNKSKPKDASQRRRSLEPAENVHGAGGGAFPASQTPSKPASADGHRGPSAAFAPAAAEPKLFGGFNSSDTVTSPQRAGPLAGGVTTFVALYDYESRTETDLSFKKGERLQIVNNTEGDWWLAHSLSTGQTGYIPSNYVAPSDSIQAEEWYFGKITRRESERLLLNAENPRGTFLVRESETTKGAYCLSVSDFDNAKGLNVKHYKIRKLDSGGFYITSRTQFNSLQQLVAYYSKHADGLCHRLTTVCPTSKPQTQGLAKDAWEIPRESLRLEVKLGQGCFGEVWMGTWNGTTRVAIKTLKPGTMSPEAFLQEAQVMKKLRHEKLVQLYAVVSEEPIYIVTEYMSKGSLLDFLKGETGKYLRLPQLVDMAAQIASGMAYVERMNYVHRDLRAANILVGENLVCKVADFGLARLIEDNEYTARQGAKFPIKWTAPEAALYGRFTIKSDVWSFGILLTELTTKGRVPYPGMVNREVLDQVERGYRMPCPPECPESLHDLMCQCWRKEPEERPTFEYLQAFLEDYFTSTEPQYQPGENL", "test": "Inhibition of human full length SRC expressed in baculovirus assessed as substrate phosphorylation using fluorescence-labelled peptides as substrate at 95 uM after 90 mins by microfluidic peptide phosphorylation assay"}, "[4]": {"target": "T2, Serine/threonine-protein kinase BRSK2 (Homo sapiens) (UniProt Q8IWQ3)", "T2 sequence (whole entry)": "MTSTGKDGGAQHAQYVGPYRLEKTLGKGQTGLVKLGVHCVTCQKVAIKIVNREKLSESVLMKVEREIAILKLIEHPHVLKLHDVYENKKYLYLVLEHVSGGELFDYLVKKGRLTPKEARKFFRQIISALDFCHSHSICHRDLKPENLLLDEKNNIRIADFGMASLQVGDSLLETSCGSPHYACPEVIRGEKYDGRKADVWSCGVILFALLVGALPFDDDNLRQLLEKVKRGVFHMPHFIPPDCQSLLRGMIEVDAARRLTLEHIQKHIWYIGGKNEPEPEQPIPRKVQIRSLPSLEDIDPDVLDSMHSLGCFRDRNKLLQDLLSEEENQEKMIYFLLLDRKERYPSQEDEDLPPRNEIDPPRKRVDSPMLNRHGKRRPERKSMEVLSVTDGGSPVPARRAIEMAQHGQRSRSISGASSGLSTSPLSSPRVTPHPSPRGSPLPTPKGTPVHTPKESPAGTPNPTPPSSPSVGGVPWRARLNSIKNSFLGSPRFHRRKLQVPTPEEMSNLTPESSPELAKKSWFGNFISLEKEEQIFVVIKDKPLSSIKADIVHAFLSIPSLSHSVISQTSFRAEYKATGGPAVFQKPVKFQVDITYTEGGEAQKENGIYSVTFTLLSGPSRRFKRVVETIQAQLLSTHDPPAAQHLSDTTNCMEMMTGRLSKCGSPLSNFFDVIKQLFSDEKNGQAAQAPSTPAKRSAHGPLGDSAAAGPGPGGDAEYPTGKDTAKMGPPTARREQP", "test": "Inhibition of human truncated BRSK2 expressed in baculovirus assessed as substrate phosphorylation using fluorescence-labelled peptides as substrate at 0.06 uM after 90 mins by microfluidic peptide phosphorylation assay"}, "[5]": {"target": "Serine/threonine-protein kinase MARK1 (Homo sapiens) (UniProt Q9P0L2)", "sequence (Q9P0L2 whole entry, looked up)": "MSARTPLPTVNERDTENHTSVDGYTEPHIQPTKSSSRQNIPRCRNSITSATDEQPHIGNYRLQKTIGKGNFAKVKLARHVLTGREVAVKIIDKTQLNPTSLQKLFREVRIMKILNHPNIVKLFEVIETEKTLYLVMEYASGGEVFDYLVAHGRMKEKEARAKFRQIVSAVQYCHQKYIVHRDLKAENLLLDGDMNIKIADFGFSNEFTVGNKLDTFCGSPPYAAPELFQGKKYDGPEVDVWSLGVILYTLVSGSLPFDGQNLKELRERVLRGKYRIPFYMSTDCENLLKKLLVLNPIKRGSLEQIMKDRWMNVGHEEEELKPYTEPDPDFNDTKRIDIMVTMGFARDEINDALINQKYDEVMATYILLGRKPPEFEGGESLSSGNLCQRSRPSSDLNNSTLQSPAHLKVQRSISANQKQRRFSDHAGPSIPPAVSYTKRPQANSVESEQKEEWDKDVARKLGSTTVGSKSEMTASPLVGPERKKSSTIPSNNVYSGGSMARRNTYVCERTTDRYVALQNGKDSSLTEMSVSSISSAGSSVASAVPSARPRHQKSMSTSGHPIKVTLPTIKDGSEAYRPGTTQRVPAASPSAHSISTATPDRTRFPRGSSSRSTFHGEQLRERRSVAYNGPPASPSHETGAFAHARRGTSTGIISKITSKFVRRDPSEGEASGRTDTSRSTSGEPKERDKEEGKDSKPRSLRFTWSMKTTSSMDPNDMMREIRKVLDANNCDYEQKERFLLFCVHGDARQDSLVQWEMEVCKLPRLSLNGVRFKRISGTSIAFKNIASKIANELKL", "test": "Inhibition of human full length MARK1 expressed in baculovirus assessed as substrate phosphorylation using fluorescence-labelled peptides as substrate at […] after 90 mins by microfluidic peptide phosphorylation assay"}, "[6]": {"target": "Ribosomal protein S6 kinase alpha-3 (Homo sapiens) (UniProt P51812)", "sequence (P51812 whole entry)": "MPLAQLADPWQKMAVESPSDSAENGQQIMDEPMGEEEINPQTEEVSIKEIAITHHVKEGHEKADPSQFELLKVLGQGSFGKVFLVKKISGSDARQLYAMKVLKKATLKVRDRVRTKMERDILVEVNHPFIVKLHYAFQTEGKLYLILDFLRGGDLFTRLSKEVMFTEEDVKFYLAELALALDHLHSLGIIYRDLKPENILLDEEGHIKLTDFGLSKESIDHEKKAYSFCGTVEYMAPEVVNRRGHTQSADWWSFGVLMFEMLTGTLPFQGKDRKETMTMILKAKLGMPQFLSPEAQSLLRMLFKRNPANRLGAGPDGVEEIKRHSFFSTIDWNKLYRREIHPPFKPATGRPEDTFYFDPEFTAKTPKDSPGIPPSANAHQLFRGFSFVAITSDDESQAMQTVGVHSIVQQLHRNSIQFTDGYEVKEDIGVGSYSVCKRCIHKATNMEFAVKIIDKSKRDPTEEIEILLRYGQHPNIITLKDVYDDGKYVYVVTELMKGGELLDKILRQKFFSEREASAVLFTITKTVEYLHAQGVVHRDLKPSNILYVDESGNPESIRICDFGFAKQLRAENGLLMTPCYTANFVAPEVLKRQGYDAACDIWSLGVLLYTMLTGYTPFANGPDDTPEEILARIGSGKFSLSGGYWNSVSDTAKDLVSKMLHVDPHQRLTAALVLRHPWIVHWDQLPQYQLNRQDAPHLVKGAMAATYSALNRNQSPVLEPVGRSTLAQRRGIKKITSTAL", "test": "Inhibition of human full length RSK2 expressed in baculovirus assessed as substrate phosphorylation using fluorescence-labelled peptides as substrate at 420 uM after 90 mins by microfluidic peptide phosphorylation assay"}, "[7]": {"target": "Serine/threonine-protein kinase pim-1 (Homo sapiens) (UniProt P11309)", "sequence (P11309 whole entry, looked up)": "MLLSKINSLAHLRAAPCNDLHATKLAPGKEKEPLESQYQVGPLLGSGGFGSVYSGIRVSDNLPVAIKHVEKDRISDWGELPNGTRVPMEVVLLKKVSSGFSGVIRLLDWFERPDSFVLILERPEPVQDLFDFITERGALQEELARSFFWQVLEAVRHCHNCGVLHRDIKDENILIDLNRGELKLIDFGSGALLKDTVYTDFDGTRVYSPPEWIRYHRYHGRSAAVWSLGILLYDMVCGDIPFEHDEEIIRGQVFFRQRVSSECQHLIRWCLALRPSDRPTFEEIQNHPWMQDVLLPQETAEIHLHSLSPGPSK", "test": "Inhibition of human full length PIM1 expressed in baculovirus assessed as substrate phosphorylation using fluorescence-labelled peptides as substrate at 70 uM after 90 mins by microfluidic peptide phosphorylation assay"}, "[8]": {"target": "Tyrosine-protein kinase Lyn (Homo sapiens) (UniProt P07948)", "sequence (P07948 2-512 limits assumed)": "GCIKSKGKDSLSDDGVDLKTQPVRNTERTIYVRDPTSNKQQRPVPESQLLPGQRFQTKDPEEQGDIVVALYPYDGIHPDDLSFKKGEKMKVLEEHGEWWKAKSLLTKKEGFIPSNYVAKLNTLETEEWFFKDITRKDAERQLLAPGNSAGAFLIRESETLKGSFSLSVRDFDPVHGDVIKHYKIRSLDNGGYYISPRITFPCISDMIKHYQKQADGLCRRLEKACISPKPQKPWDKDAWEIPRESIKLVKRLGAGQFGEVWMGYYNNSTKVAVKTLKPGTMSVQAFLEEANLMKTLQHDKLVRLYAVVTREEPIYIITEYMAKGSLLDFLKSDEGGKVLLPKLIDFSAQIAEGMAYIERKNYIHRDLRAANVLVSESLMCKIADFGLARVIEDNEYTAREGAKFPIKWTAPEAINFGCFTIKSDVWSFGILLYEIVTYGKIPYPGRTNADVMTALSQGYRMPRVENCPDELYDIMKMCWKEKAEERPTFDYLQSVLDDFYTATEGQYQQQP", "test": "Inhibition of human full length LYN expressed in baculovirus assessed as substrate phosphorylation using fluorescence-labelled peptides as substrate at 70 uM after 90 mins by microfluidic peptide phosphorylation assay"}, "[9]": {"target": "T3, cGMP-dependent protein kinase 1 (Homo sapiens) (UniProt Q13976)", "T3 sequence (whole entry)": "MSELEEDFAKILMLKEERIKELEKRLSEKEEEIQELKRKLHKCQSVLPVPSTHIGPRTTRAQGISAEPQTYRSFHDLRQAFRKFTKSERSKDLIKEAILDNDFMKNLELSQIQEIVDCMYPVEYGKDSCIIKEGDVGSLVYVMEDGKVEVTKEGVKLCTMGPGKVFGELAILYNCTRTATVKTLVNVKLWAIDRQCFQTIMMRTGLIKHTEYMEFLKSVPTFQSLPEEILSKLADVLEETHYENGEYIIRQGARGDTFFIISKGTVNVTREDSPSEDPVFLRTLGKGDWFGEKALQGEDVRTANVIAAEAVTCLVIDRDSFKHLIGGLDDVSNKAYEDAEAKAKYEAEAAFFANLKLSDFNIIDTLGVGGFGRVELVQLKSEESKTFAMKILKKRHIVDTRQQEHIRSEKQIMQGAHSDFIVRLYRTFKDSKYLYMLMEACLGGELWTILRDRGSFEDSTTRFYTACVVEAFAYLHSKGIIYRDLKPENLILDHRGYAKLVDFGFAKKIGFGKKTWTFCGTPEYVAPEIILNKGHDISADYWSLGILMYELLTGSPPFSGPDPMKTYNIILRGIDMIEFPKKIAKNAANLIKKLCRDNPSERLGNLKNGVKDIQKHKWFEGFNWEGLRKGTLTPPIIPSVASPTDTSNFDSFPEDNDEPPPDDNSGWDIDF", "test": "Inhibition of human full length PKG-1beta expressed in baculovirus assessed as substrate phosphorylation using fluorescence-labelled peptides as substrate at 2 uM after 90 mins by microfluidic peptide phosphorylation assay"}, "[10]": {"target": "MAP kinase-activated protein kinase 2 (Homo sapiens) (UniProt P49137)", "sequence (P49137 whole entry, looked up)": "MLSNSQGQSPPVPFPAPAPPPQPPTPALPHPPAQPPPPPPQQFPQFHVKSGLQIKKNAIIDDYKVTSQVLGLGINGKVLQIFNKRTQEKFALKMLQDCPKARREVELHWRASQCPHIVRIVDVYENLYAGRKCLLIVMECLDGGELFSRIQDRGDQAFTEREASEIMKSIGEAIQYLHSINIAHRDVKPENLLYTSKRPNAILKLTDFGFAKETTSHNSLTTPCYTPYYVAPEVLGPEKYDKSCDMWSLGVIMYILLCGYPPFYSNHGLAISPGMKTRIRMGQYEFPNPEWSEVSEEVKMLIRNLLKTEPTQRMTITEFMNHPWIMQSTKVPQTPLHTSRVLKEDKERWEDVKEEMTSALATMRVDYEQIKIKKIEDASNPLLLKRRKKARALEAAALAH", "test": "Inhibition of human full length MAPKAPK2 expressed in baculovirus assessed as substrate phosphorylation using fluorescence-labelled peptides as substrate at 2 uM after 90 mins by microfluidic peptide phosphorylation assay"}, "[11]": {"target": "Protein kinase C beta type (Homo sapiens) (UniProt P05771)", "sequence (P05771 2-671 limits assumed)": "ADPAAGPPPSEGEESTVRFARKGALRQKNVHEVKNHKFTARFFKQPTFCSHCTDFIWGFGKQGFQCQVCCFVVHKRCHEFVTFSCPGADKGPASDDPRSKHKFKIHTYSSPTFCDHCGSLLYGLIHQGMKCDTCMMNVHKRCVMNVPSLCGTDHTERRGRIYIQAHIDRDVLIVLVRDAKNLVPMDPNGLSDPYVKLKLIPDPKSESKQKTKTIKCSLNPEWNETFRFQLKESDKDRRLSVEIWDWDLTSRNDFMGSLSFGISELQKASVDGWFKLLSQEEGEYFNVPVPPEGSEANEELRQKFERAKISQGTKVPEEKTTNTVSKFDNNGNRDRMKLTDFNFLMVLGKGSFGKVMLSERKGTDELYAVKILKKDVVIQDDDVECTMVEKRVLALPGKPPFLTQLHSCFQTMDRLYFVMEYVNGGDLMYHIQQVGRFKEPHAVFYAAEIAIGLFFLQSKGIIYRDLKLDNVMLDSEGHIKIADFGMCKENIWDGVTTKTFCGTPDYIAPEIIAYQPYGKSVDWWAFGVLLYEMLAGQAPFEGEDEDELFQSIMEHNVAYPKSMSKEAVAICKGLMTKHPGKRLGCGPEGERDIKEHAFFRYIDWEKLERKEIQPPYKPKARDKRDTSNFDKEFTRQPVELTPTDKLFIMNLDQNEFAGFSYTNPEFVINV", "test": "Inhibition of human truncated PKC beta1 expressed in baculovirus assessed as substrate phosphorylation using fluorescence-labelled peptides as substrate at 1000 uM after 90 mins by microfluidic peptide phosphorylation assay"}},
  "data": [
    {"smiles": "NCCc1ccc(-c2ncnc3[nH]cnc23)cc1", "values": [
      {"measurement": "inhibition", "setting": "[1]", "value": 52.5, "unit": "%"},
      {"measurement": "inhibition", "setting": "[2]", "value": 89, "unit": "%"},
      {"measurement": "inhibition", "setting": "[3]", "value": 62, "unit": "%"}
    ]},
    {"smiles": "NC1(Cc2ccc(Cl)cc2)CCN(c2ncnc3[nH]ccc23)CC1", "values": [
      {"measurement": "inhibition", "setting": "[4]", "value": 0, "unit": "%"}
    ]},
    {"smiles": "COC(=O)c1cnc(Nc2cnc(C#N)cn2)cc1NCC1CCNCC1", "values": [
      {"measurement": "inhibition", "setting": "[5]", "value": 5, "unit": "%"}
    ]},
    {"smiles": "c1nc(N2CCOCC2)c2nc[nH]c2n1", "values": [
      {"measurement": "inhibition", "setting": "[6]", "value": 95, "unit": "%"}
    ]},
    {"smiles": "CNCc1ccc(-c2ncnc3[nH]cnc23)cc1", "values": [
      {"measurement": "inhibition", "setting": "[7]", "value": 26, "unit": "%"},
      {"measurement": "inhibition", "setting": "[8]", "value": 35, "unit": "%"}
    ]},
    {"smiles": "NC1CCN(c2ncnc3[nH]ccc23)CC1", "values": [
      {"measurement": "inhibition", "setting": "[9]", "value": 8.5, "unit": "%"},
      {"measurement": "inhibition", "setting": "[10]", "value": 33, "unit": "%"}
    ]},
    {"smiles": "c1cnc2[nH]ccc2c1", "values": [
      {"measurement": "inhibition", "setting": "[11]", "value": 46, "unit": "%"}
    ]}
  ]
}
